Measurements taken from article PMC6155315, “Enantiomeric Aβ peptides inhibit the fluid shear stress response of PIEZO1” (Scientific Reports, 2018).
Values joined by “and” are separate entries in the source; they are usually repeats but may differ in a detail not shown here. Equal values may be shown once. Positions of bridges follow the written chain, without caps; N, C: chain ends. Residues, ends and D or L forms follow the SMILES beside them.

Columns and labels:
hPIEZO1 = molecular target: T1, hPIEZO1 (Homo sapiens, UniProt Q92508); experiment: Fluid shear stress assay: shear-induced [Ca2+]i increase (Fluo-4 AM) in hP1-CL cells; type: cell-based; conditions: for Shear response of hP1-CL cells after cytoskeletal disruption: concentration not given; for Effect on fluid shear [Ca2+]i response: hP1-CL cells
T1 construct: expressed in transfected cells
T1 sequence (Q92508 whole entry): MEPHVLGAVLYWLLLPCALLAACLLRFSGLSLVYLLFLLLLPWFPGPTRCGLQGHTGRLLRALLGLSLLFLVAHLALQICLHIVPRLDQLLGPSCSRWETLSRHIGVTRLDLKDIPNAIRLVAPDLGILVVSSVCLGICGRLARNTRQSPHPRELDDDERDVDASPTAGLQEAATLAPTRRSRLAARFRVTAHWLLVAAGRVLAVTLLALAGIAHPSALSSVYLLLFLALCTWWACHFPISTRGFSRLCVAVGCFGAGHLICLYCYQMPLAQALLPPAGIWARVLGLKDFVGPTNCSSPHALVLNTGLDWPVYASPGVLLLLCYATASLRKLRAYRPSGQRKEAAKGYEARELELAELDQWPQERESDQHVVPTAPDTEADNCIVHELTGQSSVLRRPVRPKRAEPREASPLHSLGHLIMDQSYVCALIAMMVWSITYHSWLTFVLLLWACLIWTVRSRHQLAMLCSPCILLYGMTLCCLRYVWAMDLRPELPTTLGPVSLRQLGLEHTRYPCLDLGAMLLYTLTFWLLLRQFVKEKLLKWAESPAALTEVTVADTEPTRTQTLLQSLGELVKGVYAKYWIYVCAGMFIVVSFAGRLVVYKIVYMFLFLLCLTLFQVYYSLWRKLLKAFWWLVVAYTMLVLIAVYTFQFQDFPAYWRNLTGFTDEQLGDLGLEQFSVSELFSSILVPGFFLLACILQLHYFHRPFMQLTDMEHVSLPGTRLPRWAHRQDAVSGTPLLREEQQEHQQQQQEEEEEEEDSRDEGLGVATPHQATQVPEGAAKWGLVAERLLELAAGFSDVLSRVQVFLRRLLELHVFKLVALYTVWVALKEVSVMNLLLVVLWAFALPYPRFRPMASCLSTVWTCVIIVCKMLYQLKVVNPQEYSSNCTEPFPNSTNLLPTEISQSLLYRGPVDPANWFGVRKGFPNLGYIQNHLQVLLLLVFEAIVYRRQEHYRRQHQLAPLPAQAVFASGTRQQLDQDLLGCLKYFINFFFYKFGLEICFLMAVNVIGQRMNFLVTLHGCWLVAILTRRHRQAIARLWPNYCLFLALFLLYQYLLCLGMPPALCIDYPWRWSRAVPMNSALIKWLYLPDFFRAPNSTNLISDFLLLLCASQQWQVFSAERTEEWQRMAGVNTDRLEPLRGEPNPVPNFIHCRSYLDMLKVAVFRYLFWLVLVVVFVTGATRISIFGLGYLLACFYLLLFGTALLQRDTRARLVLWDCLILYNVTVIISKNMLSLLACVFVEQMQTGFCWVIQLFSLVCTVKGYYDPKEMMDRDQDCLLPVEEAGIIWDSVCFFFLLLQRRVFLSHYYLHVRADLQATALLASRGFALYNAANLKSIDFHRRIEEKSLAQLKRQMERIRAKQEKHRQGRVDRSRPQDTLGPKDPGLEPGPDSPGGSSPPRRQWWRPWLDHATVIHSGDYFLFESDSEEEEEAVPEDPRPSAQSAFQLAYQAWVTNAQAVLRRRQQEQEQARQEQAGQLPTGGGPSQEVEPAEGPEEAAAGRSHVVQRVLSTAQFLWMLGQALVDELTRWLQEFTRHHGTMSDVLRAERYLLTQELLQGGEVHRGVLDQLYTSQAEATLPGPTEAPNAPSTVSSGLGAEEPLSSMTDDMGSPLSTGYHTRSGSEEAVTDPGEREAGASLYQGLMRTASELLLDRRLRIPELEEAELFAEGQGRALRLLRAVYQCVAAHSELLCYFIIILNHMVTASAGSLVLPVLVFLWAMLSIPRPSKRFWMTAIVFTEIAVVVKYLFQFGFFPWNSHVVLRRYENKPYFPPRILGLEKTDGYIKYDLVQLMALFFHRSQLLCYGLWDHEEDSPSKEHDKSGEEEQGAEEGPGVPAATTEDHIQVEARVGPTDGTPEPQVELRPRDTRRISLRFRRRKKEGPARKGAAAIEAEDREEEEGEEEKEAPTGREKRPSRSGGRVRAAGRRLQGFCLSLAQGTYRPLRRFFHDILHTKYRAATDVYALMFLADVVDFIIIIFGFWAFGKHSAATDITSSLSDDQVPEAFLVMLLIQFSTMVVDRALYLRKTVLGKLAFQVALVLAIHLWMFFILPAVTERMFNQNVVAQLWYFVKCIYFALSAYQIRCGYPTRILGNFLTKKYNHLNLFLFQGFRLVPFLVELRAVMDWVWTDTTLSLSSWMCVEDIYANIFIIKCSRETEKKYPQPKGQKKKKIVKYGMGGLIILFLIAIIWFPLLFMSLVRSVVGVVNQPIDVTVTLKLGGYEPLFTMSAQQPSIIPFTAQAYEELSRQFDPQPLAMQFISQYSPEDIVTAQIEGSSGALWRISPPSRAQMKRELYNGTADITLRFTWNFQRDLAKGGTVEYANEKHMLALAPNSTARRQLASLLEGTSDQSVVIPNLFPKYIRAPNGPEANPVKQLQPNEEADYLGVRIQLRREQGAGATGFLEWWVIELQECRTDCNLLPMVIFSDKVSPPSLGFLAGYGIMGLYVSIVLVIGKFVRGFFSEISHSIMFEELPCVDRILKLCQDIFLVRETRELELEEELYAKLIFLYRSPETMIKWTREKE
Method: We first created a cell line that expressed a fluorescently tagged version of human PIEZO1 called hPIEZO1-1591-EGFP[5]. […] The cDNA was integrated into the genome of HEK293T cells using a lentivirus vector.
The microfluidic chambers had glass coverslip bottoms coated with human fibronectin (Invitrogen)[20] and fluid flow guided by PDMS channels. Cells were cultured in the chamber for 3 days, with daily medium changes. On the experimental day, chambers were rinsed with isotonic solution (75 mM NaCl, 5 mM KCl, 2 mM MgCl2, 1 mM CaCl2 and 10 mM HEPES, adjusted to 320 mOsm with mannitol). A stock of Fluo-4 AM was diluted to 5 µM in isotonic saline and incubated with cells for 10–30 min at 37C°. Chambers were then rinsed twice with isotonic solution and incubated for 8 minutes to complete Fluo-4 AM de-esterification. A single fluid shear stress pulse of ~15 dynes/cm^2 for 8–10 ms was applied to the chamber using a high-speed pressure servo (HSPC-1 from ALA). Peptide stocks were kept at 4 °C until used, dissolved to desired concentrations, and immediately added to cells.
Images of the cellular response to shear stress were captured by an EM-CCD camera (C9100 model, Hamamatsu) at a nominal rate of 1 Hz. To quantify the response, the average intensity in the field of view was background subtracted. Image intensity was adjusted for the rate of bleaching. Each condition was repeated in four separate chambers, and the results averaged. The responses were normalized to the control experiments, and the inhibition was calculated as previously described. The data points were fit by a Hill plot with the equation:1 y=Vmax⁎x^n/(k^n+x^n) where Vmax is the maximum response, n is the Hill coefficient, and k is related to the concentration at half-maximal response.

hP1-mCherry-CL cells = experiment: Actin stress, cpst-FRET actin force probe, in PIEZO1-overexpressing cells; type: cell-based, human; conditions: for Effect on actin stress: 37 °C, 15 cells from 3 experiments
Text: Cell movement in the presence of PIEZO1 channels appears to rely on cytoskeletal integrity and plasticity, consistent with the ability of cytoskeletal disrupting agents to prevent PIEZO1 activation (Supplementary Fig. 4A). We examined forces within the cytoskeleton during channel inhibition. By transient transfection, we introduced a genetically encoded optical probe of actin stress (cpst-FRET) into stable hP1-mCherry-CL cells[19] (Fig. 4A), resulting in probe expression into F-actin. […] For each experiments described below, we analyzed and averaged (with SD) 15 cells from 3 different experiments. […] 10 pM of monomerized scrambled Aβ peptide (black squares) also had no effect on actin stress.
Figure 4 D-GsMTx4 and the enantiomeric Aβ(1-40) peptides inhibit Ca^2+ entry, and increase cytoskeleton stress in hP1-mCherry-CL cells. hP1-mCherry-CL cells were transiently transfected with cDNA encoding the actin force probe to monitor peptide-induced changes to the cell’s cytoskeleton. […] Each data point is the average of 15 cells from 3 different experiments (with SD). A baseline response is established in the first 30 minutes (37 °C and 5% CO2). Addition (green bar) of D-GsMTx4 (5 uM, black squares) or monomeric enantiomeric Aβ(1-40) peptides (10 pM; L, red circles; D, blue triangles) elicits immediate increases in actin stress. […] Bath removal of extracellular Ca^2+ elicits the largest effect (40%, blue triangles). Data points are 15 cells from 3 independent experiments with SD. Panel D summarizes Aβ responses at the 60 min time point (paired t-test). […] Before and after intensities were analyzed by paired t-test ([…]). […]
(§1) To measure cytoskeletal stress, hP1-mCherry-CL cells were transiently transfected with cDNA encoding the cpst-actin FRET probe. The FRET ratio of […] was measured by simultaneous imaging using an image splitter. Baseline actin stress was measured at 37 °C in isotonic solution for 30 min before peptide addition (see above).

HEK293T cells = experiment: Actin stress, actin force probe, in unmodified control cells; type: cell-based
Method: (Panel A) HEK293T cells were monitored for 30 min to establish a baseline.
as §1

PIEZO1 channels = type: cell-based, human; conditions: 5 µM perfused, 50 mV, 60 mmHg pulses; 3 independent experiments
Method: We examined whether the Aβ could inhibit PIEZO1 currents in the patch. We formed outside/out patches from the hP1 cell line and tested whether 10 µM of Aβ (1-40) or Aβ (1-42) (Peptide Method I) inhibited channel activity, a concentration that blocked the shear response.
Cell-attached and outside-out patches were used as previously described[47]. All experiments were at room temperature. Pressure or suction steps were applied to the membranes using a high speed pressure clamp (ALA)[48]. The bath solution contained (in mM): 150 KCl, 10 HEPES, 1 MgCl2, 1 CaCl2 at pH 7.4 that clamped the resting membrane potential to zero. The pipette solution was 150 mM KCl at pH 7.4.
Shown above are typical results from single patches. Left- a positive pressure pulse of 60 mmHg at 50 mV lasting 500 msec was applied to an O/O patch every 2 seconds. After 12 pulses (24 seconds, black trace is the average of 12 pulses), 10 µM of L Aβ(1-40) was applied by perfusion and activity was monitored for 30 seconds (red trace is the average of 15 pulses). […] Center- The effect of Aβ(1-42) on a different patch (identical conditions described above). 12 pressure pulses (black trace) established a baseline response. […] 6 pressure pulses (50 mV, 60 mmHg) were applied to establish the baseline response (black). […]

hP1-CL cells = experiment: Cell migration (wound healing) assay with peel-off PDMS barrier; type: cell-based, human; conditions: 5 µM
Method: PIEZO1 channels are involved in neurite extension[16] and other types of cell motility. This led us to test the effects of Aβ peptides on hP1-CL motility in a wound healing assay. Cells were grown to confluence on glass coverslips half-coated with PDMS (Polydimethylsiloxane). The PDMS layer was then peeled off allowing us to accurately measure the collective cell migration rates across the newly exposed glass surface.
Figure 3 Aβ peptides inhibit migration of hP1-CL cells. Cell migration was measured as cell movement on glass cover slips in polystyrene dishes at 37 °C and 5% CO2. A PDMS barrier to cell growth was created on the cover slip. When cells reached confluency, the barrier was peeled off. Images of the resulting, initially sharp confluent cell boundary were captured at 0.003 Hz over 5 hours. […] Bottom left panel summarizes the mean cell migration distances as a function of time. […] Three independent experiments were averaged (SEM).
Half of a glass coverslip was coated with catalyzed PDMS (polydimethylsiloxane) (9:1) and allowed to harden. Cells were cultured on the complete coverslip kept in tissue culture dishes. After achieving confluency, the PDMS was peeled from the glass. The location of the front edge of the confluent cells was monitored for 5 hr at 37 C° with 5% CO2-supplemented DMEM media containing 10% bovine serum. […]

COc1cc2c(c(OC)c1OC)-c1ccc(OC)c(=O)cc1[C@@H](NC(C)=O)CC2 [colchicine]
Shear response of hP1-CL cells after cytoskeletal disruption (hPIEZO1; Supplementary Fig. 3A): unresponsive to fluid shear

HiLyte Aβ(1-42): L-Aβ(1-42) fluorescently labeled at the N-terminus with HiLyte (555), purchased (Anaspec) and monomerized
Effect on shear stress response of the hPIEZO1 cell line (hPIEZO1; 5 pM and 100 pM monomerized peptide, 4 independent experiments): inhibited | Effect on PIEZO1-mediated Ca2+ response to shear stress (hPIEZO1; 100 pM monomerized peptide, 4 independent experiments): completely inhibited

C=C1[C@@H](C)[C@H]2[C@H](Cc3ccccc3)NC(=O)[C@]23[C@H](OC(C)=O)/C=C/[C@@](C)(O)C(=O)[C@@H](C)C/C=C/[C@H]3[C@@H]1O [cytochalasin D]
Shear response of hP1-CL cells after cytoskeletal disruption (hPIEZO1; Supplementary Fig. 3A): unresponsive to fluid shear

AEGDSHVLKEGAYMEIFDVQGHVFGGKIFRVVDLGSHNVA [scrambled L-Aβ(1-40), scrambled Aβ(1-40) peptide purchased from Anaspec, used as control]
Effect on fluid shear [Ca2+]i response (hPIEZO1; 10 µM peptide, 4 independent experiments): lack of PIEZO1 inhibition | Effect on actin stress (hP1-mCherry-CL cells; 10 pM monomeric peptide added after 30 min baseline): no effect | Effect on actin stress probe FRET in HEK293T cells (HEK293T cells; concentration not given, after 30 min baseline): no change

CC(C)C[C@@H]1NC(=O)[C@@H](NC(=O)CN)CSSC[C@@H]2NC(=O)[C@@H]3CSSC[C@@H](C(=O)N[C@@H](CC(N)=O)C(=O)N[C@@H](Cc4ccccc4)C(=O)N[C@@H](CO)C(=O)N[C@@H](Cc4ccccc4)C(N)=O)NC(=O)[C@H](CC(C)C)NC(=O)[C@H](CCCCN)NC(=O)[C@H](Cc4ccccc4)NC(=O)[C@H](CC(C)C)NC(=O)[C@H](CCCCN)NC(=O)[C@H](CO)NC(=O)[C@H](CSSC[C@H](NC(=O)[C@H](CCCCN)NC(=O)[C@H](Cc4c[nH]c5ccccc45)NC(=O)[C@H](Cc4c[nH]c5ccccc45)NC(=O)[C@H](Cc4ccccc4)NC(=O)[C@H](CCC(=O)O)NC1=O)C(=O)N[C@@H](CC(N)=O)C(=O)N1CCC[C@H]1C(=O)N[C@@H](CC(N)=O)C(=O)N[C@@H](CC(=O)O)C(=O)N[C@@H](CC(=O)O)C(=O)N[C@@H](CCCCN)C(=O)N3)NC(=O)[C@H](CCCCN)NC(=O)[C@H](CC(C)C)NC(=O)[C@H](CCCCN)NC(=O)[C@@H]1CCCN1C(=O)[C@H](CCCNC(=N)N)NC2=O [GsMTx4] (H-GCLEFWWKCNPNDDKCCRPKLKCSKLFKLCNFSF-NH2; disulfide 2-17, 9-23, 16-30; N-terminus and C-terminus assumed)
Effect on fluid shear [Ca2+]i response (hPIEZO1; 5 µM, Supplementary Fig. 3A): inhibited the shear stress response | Reversibility of channel inhibition on washout (hPIEZO1; shear stress assay, Aβ: within 20 min or with shear stress raised to 25 dynes/cm2): readily restored | Hill coefficient (hPIEZO1; titration of shear stress response of hP1-CL cells): 1.9 and ~ 1.9 | Inhibition of PIEZO1 outside/out patch current (PIEZO1 channels): 0.67 ± 0.07

D-GsMTx4
Effect on fluid shear [Ca2+]i response (hPIEZO1; 5 µM, Supplementary Fig. 3A): complete inhibition | Effect on hP1-CL cell migration (hP1-CL cells): blocked | Slowing of cell migration (hP1-CL cells; hP1-CL cells, 5 hr, 37 °C, 3 independent experiments): over 10 fold | Effect on actin stress (hP1-mCherry-CL cells; 5 µM added after 30 min baseline): increase in actin stress | Effect on F-actin in lamellipodia (hP1-mCherry-CL cells; actin force probe images, Fig. 4E,F, 20 lamellipodia from 4 cells): drop of F-actin tension and its retraction from the lamellipodia | Effect on actin stress in HEK293T cells (HEK293T cells; 5 µM, 15 cells from 3 experiments): no effect
